Data as given in US20240261243A1, “NITRIC OXIDE DONORS, COMPOSITIONS, AND METHODS OF USE” (priority 2020, published 2024).
Converted amounts (≈) assume the structure as drawn. Marks after values point to notes of the source that are not given here.

Legend:
[1] = test system: P. aeruginosa strains; test: MIC/MBC of BIOC76 and gallium citrate alone against 21 strains; type: cell-based, Pseudomonas aeruginosa; settings: for MBC Rep 1 / MIC Rep 1: alone
From the text: Determined the MIC of each test article individually against the strains being tested using the CLSI MIC/MBC method.
In this study, we established the MIC/MiBC's of BIOC76 and gallium citrate alone against each of 21 P. aeruginosa strains. […] The activity of both compounds is also strain-dependent. The results are as follows (the species for each strain is Pseudomonas aeruginosa: […]

[2] = test system: P. aeruginosa (PAK); test: Time-kill assay in CAMHB at 37° C.; type: cell-based, Pseudomonas aeruginosa; settings: 4 mg/ml BIOC76 alone, broth
Protocol: In this study, we established the viability of P. aeruginosa in a broth at 37° C. when exposed to BIOC76 alone compared to BIOC76+gallium citrate. […] To conduct this experiment, we suspended P. aeruginosa (PAK) in CAMHB to a final concentration of 10^6 CFU/ml. Bacteria were exposed to BIOC76, GaCi, or BIOC76+GaCi and incubated at 37° C.

[3] = test system: P. aeruginosa biofilms; test: Biofilm eradication (MBEC) on peg lid
[4] = test system: P. aeruginosa strain PAK
Protocol: All test articles are prepared at 4×→diluted 1:1 when other TA is added (2×), and diluted 1:1 again to 1× when bacteria are added
The Checkerboard assay (described herein) was used with a hepta-substituted cyclodextrin-based NO donor (hereinafter referred to as BIOC76) having approximately ˜4.7 μmol NO/mg dry powder.
Experimental Design: The MIC of BIOC76 and Gallium nitrate individually, then set up a checkerboard assay testing 49 combinations of BIOC76 and Gallium nitrate concentrations against 10^6 CFU/ml P. aeruginosa strain PAK. Plates were incubated at 37° C. for 18-24 h, and growth was assessed visually.

[5] = test system: P. aeruginosa (PAK); test: Combination MIC/MBC assay, BIOC76 with fixed gallium citrate; type: cell-based, Pseudomonas aeruginosa
Protocol: Combination MIC/MBC assays are useful when you want to look at only a few concentrations of one compound (Gallium citrate) combined with many concentrations of the second compound (BIOC76).
This method also allows us to see the change in both the MIC and MBC of a drug when in combination with another drug. Checkerboard assays only allow us to see changes in the MIC's.
Test articles are added to a 96-well plate so that when a 2× bacterial culture (prepared to 10^6 CFU/ml) is added, the final concentration in all wells was 1×.
All test articles are prepared at 4×→diluted 1:1 when other TA is added (2×) and diluted 1:1 again to 1× when bacteria are added.
TA #1 (Gallium citrate) is prepared and added to entire rows of a plate at a single concentration.
TA #2 (BIOC76) in then prepared and serially diluted in TA #1, so there are 2-fold dilutions of TA #2 combined with a single concentration of TA #1.
Plates were incubated at 37° C. for 18-24 h.
The ΔMIC/IBC is used to show the change in the MIC/IBC of BIOC76 when in combination with Gallium citrate (compared to when BIOC76 is used alone).
ΔMIC/MBC is the fold-decrease in BIOC76 concentration as a result of the combination.
We concluded BIOC76 and gallium citrate maintain synergistic activity so long as the gallium concentration is at least about 0.005 to about 0.02 mg/ml. In this experimental, we set up MIC/MBC assay and serially diluted BIOC76 in rows with fixed concentrations of gallium citrate. […] The results are shown in FIG. 6, and in the following tables: […]

[6] = strain N0049 (PAK), with 0.0156 mg/ml GaCi
[7] = strain N0049 (PAK), with 0.0325 mg/ml GaCi
[8] = strain N0049 (PAK), with 0.065 mg/ml GaCi
[9] = strain N0049 (PAK), with 0.125 mg/ml GaCi
[10] = strain N0049 (PAK), with 0.25 mg/ml GaCi
[11] = strain N0049 (PAK), with 0.5 mg/ml GaCi
[12] = strain N0049 (PAK), with 1 mg/ml GaCi
[13] = strain N0049 (PAK), with 2 mg/ml GaCi

With `O=NN(O)N(CCO)CC1OC2OC3C(CN(CCO)N(O)N=O)OC(OC4C(CN(CCO)N(O)N=O)OC(OC5C(CN(CCO)N(O)N=O)OC(OC6C(CN(CCO)N(O)N=O)OC(OC7C(CN(CCO)N(O)N=O)OC(OC8C(CN(CCO)N(O)N=O)OC(OC1C(O)C2O)C(O)C8O)C(O)C7O)C(O)C6O)C(O)C5O)C(O)C4O)C(O)C3O` (centres unmarked) [BIOC76] the “mode of activity alone (conclusion)” value ([1]; 21 P. aeruginosa strains) was “largely bacteriostatic”, the “MBC Rep 1” value ([1]; strain N0047 (AR-BANK #103)) was 8000 µg/mL and the “MIC Rep 1” value ([1]; strain N0047 (AR-BANK #103)) was 2000 µg/mL. For the same molecule, the “MBC Rep 1” value ([1]; strain N0048 (ATCC 19143)) was 2000 µg/mL, the “MIC Rep 1” value ([1]; strain N0048 (ATCC 19143)) was 500 µg/mL and the “MBC Rep 1” value ([1]; strain N0049 (PAK)) was 4000 µg/mL. For the same molecule, the “MIC Rep 1” value ([1]; strain N0049 (PAK)) was 2000 µg/mL, the “MBC Rep 1” value ([1]; strain N0050 (AR-BANK #0095)) was 8000 µg/mL and the “MIC Rep 1” value ([1]; strain N0050 (AR-BANK #0095)) was 2000 µg/mL. The “MBC Rep 1” value ([1]; strain N0051 (AU32077)) was 4000 µg/mL, the “MIC Rep 1” value ([1]; strain N0051 (AU32077)) was 1000 µg/mL and the “MBC Rep 1” value ([1]; strain N0052 (AU25834)) was 2000 µg/mL. The “MIC Rep 1” value ([1]; strain N0052 (AU25834)) was 1000 µg/mL, the “MBC Rep 1” value ([1]; strain N0053 (AU30524)) was 16000 µg/mL and the “MIC Rep 1” value ([1]; strain N0053 (AU30524)) was 4000 µg/mL. The “MBC Rep 1” value ([1]; strain N0054 (AU26773)) was 16000 µg/mL, the “MIC Rep 1” value ([1]; strain N0054 (AU26773)) was 2000 µg/mL and the “MBC Rep 1” value ([1]; strain N0055 (AU22725)) was over 8000 µg/mL. For the same molecule, the “MIC Rep 1” value ([1]; strain N0055 (AU22725)) was 1000 µg/mL, the “MBC Rep 1” value ([1]; strain N0056 (AU22505)) was 16000 µg/mL and the “MIC Rep 1” value ([1]; strain N0056 (AU22505)) was 8000 µg/mL. The “MBC Rep 1” value ([1]; strain N0057 (AU35400)) was 32000 µg/mL, the “MIC Rep 1” value ([1]; strain N0057 (AU35400)) was 8000 µg/mL and the “MBC Rep 1” value ([1]; strain N0058 (AU32543)) was 8000 µg/mL. The “MIC Rep 1” value ([1]; strain N0058 (AU32543)) was 2000 µg/mL, the “MBC Rep 1” value ([1]; strain N0059 (AR-BANK #0054)) was over 16000 µg/mL and the “MIC Rep 1” value ([1]; strain N0059 (AR-BANK #0054)) was 2000 µg/mL. The “MBC Rep 1” value ([1]; strain N0069 (AR-BANK #0090)) was over 16000 µg/mL, the “MIC Rep 1” value ([1]; strain N0069 (AR-BANK #0090)) was 2000 µg/mL and the “MBC Rep 1” value ([1]; strain N0070 (AR-BANK #0092)) was over 16000 µg/mL. For the same molecule, the “MIC Rep 1” value ([1]; strain N0070 (AR-BANK #0092)) was 2000 µg/mL, the “MBC Rep 1” value ([1]; strain N0071 (AR-BANK #0100)) was over 16000 µg/mL and the “MIC Rep 1” value ([1]; strain N0071 (AR-BANK #0100)) was 2000 µg/mL. The “MBC Rep 1” value ([1]; strain N0072 (AR-BANK #0105)) was over 16000 µg/mL, the “MIC Rep 1” value ([1]; strain N0072 (AR-BANK #0105)) was 2000 µg/mL and the “MBC Rep 1” value ([1]; strain N0079 (AR-BANK #0108)) was over 16000 µg/mL. For the same molecule, the “MIC Rep 1” value ([1]; strain N0079 (AR-BANK #0108)) was 2000 µg/mL, the “MBC Rep 1” value ([1]; strain N0080 (AR-BANK #0110)) was over 16000 µg/mL and the “MIC Rep 1” value ([1]; strain N0080 (AR-BANK #0110)) was 2000 µg/mL. The “MBC Rep 1” value ([1]; strain N0081 (AR-BANK #0111)) was over 16000 µg/mL, the “MIC Rep 1” value ([1]; strain N0081 (AR-BANK #0111)) was 2000 µg/mL and the “MBC Rep 1” value ([1]; strain N0099 (ATCC 29260)) was 8000 µg/mL. For the same molecule, the “MIC Rep 1” value ([1]; strain N0099 (ATCC 29260)) was 2000 µg/mL, the “bacterial survival over 24 h” value [2] was “can recover after 24 h” and the “MBEC of BIOC76” value ([3]; PAK (N0049), 3-log reduction in biofilm) was 4 mg/mL. For the same molecule, the “effectiveness against P. aeruginosa biofilms” value ([3]; biofilms grown under aerobic conditions) was “effective”, the “MIC BIOC76 alone” value [4] was 1000 µg/mL (≈ 539 µM) and the “MIC BIOC76 combo” value ([4]; in combination with Ga(NO3)3) was 125 µg/mL. For the same molecule, the “MIC BIOC76” value ([5]; PAK, alone) was 2000 µg/mL, the “Combo MIC BIOC76” value ([5]; PAK, with 0.0039 mg/ml GaCi) was 2000 µg/mL and the “Combo MIC BIOC76” value ([5]; PAK, with 0.0078 mg/ml GaCi) was 1000 µg/mL. For the same molecule, the “Combo MIC BIOC76” value ([5]; PAK, with 0.0156 mg/ml GaCi) was 250 to 500 µg/mL, the “Combo MIC BIOC76” value ([5]; PAK, with 0.0313 mg/ml GaCi) was 125 µg/mL and the “MBC BIOC76 alone” value ([5]; strain N0049 (PAK)) was 4000 µg/mL. The “MIC BIOC76 alone” value ([5]; strain N0049 (PAK)) was 2000 µg/mL, the “Combo MBC BIOC76” value [5, 6] was 4 mg/mL and the “Δ MBC” value [5, 6] was 0 fold-decrease. The “Δ MIC” value [5, 6] was 4 fold-decrease, the “Combo MBC BIOC76” value [5, 7] was 4 mg/mL and the “Combo MIC BIOC76” value [5, 7] was 125000 µg/mL. For the same molecule, the “Δ MBC” value [5, 7] was 0 fold-decrease, the “Δ MIC” value [5, 7] was 16 fold-decrease and the “Combo MBC BIOC76” value [5, 8] was 4 mg/mL. The “Combo MIC BIOC76” value [5, 8] was under 60 µg/mL, the “Δ MBC” value [5, 8] was 0 fold-decrease and the “Combo MBC BIOC76” value [5, 9] was 4 mg/mL. For the same molecule, the “Combo MIC BIOC76” value [5, 9] was under 60 µg/mL, the “Δ MBC” value [5, 9] was 0 fold-decrease and the “Combo MBC BIOC76” value [5, 10] was 2 mg/mL. For the same molecule, the “Combo MIC BIOC76” value [5, 10] was under 60 µg/mL, the “Δ MBC” value [5, 10] was 2 fold-decrease and the “Combo MBC BIOC76” value [5, 11] was 2 mg/mL. For the same molecule, the “Combo MIC BIOC76” value [5, 11] was under 60 µg/mL, the “Δ MBC” value [5, 11] was 2 fold-decrease and the “Combo MBC BIOC76” value [5, 12] was 4* mg/ml. The “Combo MIC BIOC76” value [5, 12] was under 60 µg/mL, the “Δ MBC” value [5, 12] was 0* fold-decrease and the “Combo MBC BIOC76” value [5, 13] was 2 mg/mL. The “Combo MIC BIOC76” value [5, 13] was under 60 µg/mL and the “Δ MBC” value [5, 13] was 2 fold-decrease.
